Test results reported in ChEMBL document CHEMBL5360667, “Carboxylic Acid-Containing Indanyl Compounds as S1P5 Modulators for Treating Neurodegenerative Diseases” (ACS Med Chem Lett, 2023).

The compounds below were run against Sphingosine 1-phosphate receptor 5 (Homo sapiens) (UniProt Q9H228) (assay: Agonist activity at recombinant S1P5 (unknown origin) expressed in CHO cell membranes assessed as increase in [35S]GTPgammaS binding preincubated for 30 mins followed by [35S]GTPgammaS addition and measured after 40 mins by microbeta scintillation counter analysis). Conditions: Membrane, filed as agonist, time 70.0 min.
Sphingosine 1-phosphate receptor 5 (Homo sapiens), sequence (Q9H228 whole entry): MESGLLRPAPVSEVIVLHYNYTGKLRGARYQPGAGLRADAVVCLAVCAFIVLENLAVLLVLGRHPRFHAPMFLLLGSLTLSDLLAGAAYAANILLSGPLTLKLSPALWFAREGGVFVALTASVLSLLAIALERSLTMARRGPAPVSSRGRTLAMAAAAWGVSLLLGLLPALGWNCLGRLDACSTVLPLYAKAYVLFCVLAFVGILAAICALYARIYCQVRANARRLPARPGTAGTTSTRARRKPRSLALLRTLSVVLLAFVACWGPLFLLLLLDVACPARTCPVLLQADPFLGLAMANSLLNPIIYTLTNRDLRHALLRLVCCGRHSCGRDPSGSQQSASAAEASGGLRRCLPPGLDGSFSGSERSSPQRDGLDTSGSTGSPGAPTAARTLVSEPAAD
Type: functional

SMILES | EC
Cc1c(OCc2c(Cl)cccc2Cl)ccc2c1CCC2N1CCC(C(=O)O)CC1 (stereo unspecified) | < 1 nM
CC(C)Oc1ccc(COc2ccc3c(c2)CCC3N2CC(C(=O)O)C2)cc1C(F)(F)F (stereo unspecified) | 1 nM
O=C(O)C1CCN(C2CCc3c2ccc(OCc2c(Cl)cccc2Cl)c3F)CC1 (stereo unspecified) | < 1 nM
O=C(O)C1CN(C2CCc3cc(OCc4ccc(C5CC5)c(C(F)(F)F)c4)ccc32)C1 (stereo unspecified) | 1 nM
Cc1cc(OCc2c(Cl)cccc2Cl)cc2c1C(N1CCC(C(=O)O)CC1)CC2 (stereo unspecified) | < 1 nM
O=C(O)C1CN(C2CCc3cc(OCc4cc(F)c(F)cc4F)ccc32)C1 (stereo unspecified) | 1 nM
